Data taken from the CheMixHub ionic liquid set.

Assay: xn = mol fraction of the nth substance listed

CCCC[n+]1ccn(C)c1.O=S(=O)([N-]S(=O)(=O)C(F)(F)F)C(F)(F)F + CCO
Details	electrical conductivity [S/m]	viscosity [mPa·s]
293 K, 100 kPa, x1 = 0.5784	–	20.7
293.3 K, 100 kPa, x1 = 0.4606	–	13.8
293.3 K, 100 kPa, x1 = 0.747	–	32.1
293.61 K, 100 kPa, x1 = 0.2688	–	6.37
293.61 K, 100 kPa, x1 = 1	–	61.8
293.91 K, 100 kPa, x1 = 0.2129	–	5.12
293.91 K, 100 kPa, x1 = 0.4606	–	13.5
293.91 K, 100 kPa, x1 = 0.6609	–	24.2
294.21 K, 100 kPa, x1 = 0.4215	–	12.22
294.21 K, 100 kPa, x1 = 0.6609	–	23.9
294.21 K, 100 kPa, x1 = 1	–	60.2
294.52 K, 100 kPa, x1 = 0.747	–	30.8
294.52 K, 100 kPa, x1 = 0.8264	–	38.5
294.52 K, 100 kPa, x1 = 1	–	59.4
294.82 K, 100 kPa, x1 = 0.4215	–	11.98
294.82 K, 100 kPa, x1 = 1	–	58.6
295.12 K, 100 kPa, x1 = 0.4215	–	11.87
295.12 K, 100 kPa, x1 = 0.747	–	30.1
295.42 K, 100 kPa, x1 = 0.2129	–	4.94
295.42 K, 100 kPa, x1 = 0.2688	–	6.11
295.42 K, 100 kPa, x1 = 0.4606	–	12.94
295.73 K, 100 kPa, x1 = 0.8264	–	36.7
296.64 K, 100 kPa, x1 = 0.2688	–	5.94
296.64 K, 100 kPa, x1 = 0.4606	–	12.48
296.64 K, 100 kPa, x1 = 1	–	54.1
296.94 K, 100 kPa, x1 = 0.4606	–	12.36
296.94 K, 100 kPa, x1 = 0.747	–	28.4
297.24 K, 100 kPa, x1 = 0.2688	–	5.85
297.24 K, 100 kPa, x1 = 0.4215	–	11.09
297.24 K, 100 kPa, x1 = 0.5784	–	18.17
297.24 K, 100 kPa, x1 = 0.747	–	28.1
297.55 K, 100 kPa, x1 = 0.8264	–	34.1
297.85 K, 100 kPa, x1 = 1	–	51.4
298 K, 100 kPa, x1 = 0.02	0.415	–
298 K, 100 kPa, x1 = 0.03	0.5634	–
298 K, 100 kPa, x1 = 0.05	–	1.663
298 K, 100 kPa, x1 = 0.06	0.8844	–
298 K, 100 kPa, x1 = 0.07	0.958	–
298 K, 100 kPa, x1 = 0.0999	–	2.413
298 K, 100 kPa, x1 = 0.1	1.118	–
298 K, 100 kPa, x1 = 0.1999	–	4.331
298 K, 100 kPa, x1 = 0.2	1.28	–
298 K, 100 kPa, x1 = 0.2993	–	6.629
298 K, 100 kPa, x1 = 0.3	1.216	–
298 K, 100 kPa, x1 = 0.397	–	9.56
298 K, 100 kPa, x1 = 0.4	1.09	–
298 K, 100 kPa, x1 = 0.4836	–	12.74
298 K, 100 kPa, x1 = 0.5	0.9534	–
298 K, 100 kPa, x1 = 0.6	0.8239	–
298 K, 100 kPa, x1 = 0.6978	–	23.61
298 K, 100 kPa, x1 = 0.7	0.6839	–
298 K, 100 kPa, x1 = 0.8	0.575	–
298 K, 100 kPa, x1 = 0.8001	–	30.86
298 K, 100 kPa, x1 = 0.8987	–	38.32
298 K, 100 kPa, x1 = 0.9	0.4819	–
298 K, 100 kPa, x1 = 1	–	49.7
298.15 K, 100 kPa, x1 = 0.2129	–	4.64
298.15 K, 100 kPa, x1 = 0.2688	–	5.73
298.15 K, 101 kPa, x2 = 0.1174	–	38.5
298.45 K, 100 kPa, x1 = 0.6609	–	21
298.45 K, 100 kPa, x1 = 0.747	–	27
298.76 K, 100 kPa, x1 = 0.4215	–	10.58
298.76 K, 100 kPa, x1 = 0.8264	–	32.6
299.06 K, 100 kPa, x1 = 0.2129	–	4.55
299.06 K, 100 kPa, x1 = 0.5784	–	17.18
299.06 K, 100 kPa, x1 = 0.6609	–	20.6
299.67 K, 100 kPa, x1 = 0.4606	–	11.41
299.97 K, 100 kPa, x1 = 0.2129	–	4.45
299.97 K, 100 kPa, x1 = 0.5784	–	16.72
300.27 K, 100 kPa, x1 = 0.2129	–	4.42
300.27 K, 100 kPa, x1 = 0.4215	–	10.11
300.27 K, 100 kPa, x1 = 0.747	–	25.4
300.27 K, 100 kPa, x1 = 0.8264	–	30.7
300.58 K, 100 kPa, x1 = 0.4215	–	10.02
300.88 K, 100 kPa, x1 = 0.2688	–	5.37
300.88 K, 100 kPa, x1 = 0.4215	–	9.92
301.18 K, 100 kPa, x1 = 0.2688	–	5.34
301.48 K, 100 kPa, x1 = 0.2129	–	4.3
302.7 K, 100 kPa, x1 = 0.2129	–	4.18
302.7 K, 100 kPa, x1 = 0.2688	–	5.15
302.7 K, 100 kPa, x1 = 0.747	–	23.5
302.7 K, 100 kPa, x1 = 0.8264	–	28.1
303 K, 100 kPa, x1 = 0.4606	–	10.38
303 K, 100 kPa, x1 = 0.747	–	23.2
303.3 K, 100 kPa, x1 = 0.2688	–	5.08
303.91 K, 100 kPa, x1 = 0.8264	–	26.8
304.52 K, 100 kPa, x1 = 0.4606	–	9.95
304.52 K, 100 kPa, x1 = 0.5784	–	14.59
304.52 K, 100 kPa, x1 = 1	–	39.3
304.82 K, 100 kPa, x1 = 0.2688	–	4.9
304.82 K, 100 kPa, x1 = 0.4215	–	8.85
304.82 K, 100 kPa, x1 = 0.747	–	21.9
305.12 K, 100 kPa, x1 = 1	–	38.4
306.03 K, 100 kPa, x1 = 0.2688	–	4.76
306.33 K, 100 kPa, x1 = 0.5784	–	13.83
306.33 K, 100 kPa, x1 = 0.8264	–	24.6
306.64 K, 100 kPa, x1 = 0.2688	–	4.69
306.64 K, 100 kPa, x1 = 0.6609	–	16.39
306.94 K, 100 kPa, x1 = 0.2129	–	3.8
307.24 K, 100 kPa, x1 = 0.4215	–	8.27
307.24 K, 100 kPa, x1 = 0.4606	–	9.23
308.15 K, 100 kPa, x1 = 0.2688	–	4.53
308.15 K, 100 kPa, x1 = 0.6609	–	15.67
308.45 K, 100 kPa, x1 = 0.2129	–	3.67
308.45 K, 100 kPa, x1 = 0.6609	–	15.53
308.45 K, 100 kPa, x1 = 0.747	–	19.5
308.76 K, 100 kPa, x1 = 0.4215	–	7.93
308.76 K, 100 kPa, x1 = 0.5784	–	12.88
308.76 K, 100 kPa, x1 = 0.747	–	19.3
309.06 K, 100 kPa, x1 = 0.2688	–	4.44
309.67 K, 100 kPa, x1 = 0.4215	–	7.73
309.67 K, 100 kPa, x1 = 1	–	32.4
309.97 K, 100 kPa, x1 = 0.4606	–	8.58
309.97 K, 100 kPa, x1 = 0.747	–	18.6
310.58 K, 100 kPa, x1 = 0.747	–	18.3
310.88 K, 100 kPa, x1 = 0.2129	–	3.47
310.88 K, 100 kPa, x1 = 0.5784	–	12.12
310.88 K, 100 kPa, x1 = 0.8264	–	20.9
311.18 K, 100 kPa, x1 = 0.4606	–	8.31
311.48 K, 100 kPa, x1 = 0.2129	–	3.42
311.79 K, 100 kPa, x1 = 0.4606	–	8.18
311.79 K, 100 kPa, x1 = 0.5784	–	11.8
311.79 K, 100 kPa, x1 = 0.747	–	17.58
311.79 K, 100 kPa, x1 = 0.8264	–	20.3
312.09 K, 100 kPa, x1 = 0.2688	–	4.13
312.09 K, 100 kPa, x1 = 0.6609	–	13.95
312.39 K, 100 kPa, x1 = 0.2688	–	4.1
312.39 K, 100 kPa, x1 = 0.4606	–	8.05
312.7 K, 100 kPa, x1 = 0.2688	–	4.07
313 K, 100 kPa, x1 = 0.747	–	16.94
313 K, 100 kPa, x1 = 1	–	28.8
313.3 K, 100 kPa, x1 = 0.4215	–	7.02
313.61 K, 100 kPa, x1 = 0.8264	–	19
313.91 K, 100 kPa, x1 = 0.6609	–	13.23
313.91 K, 100 kPa, x1 = 0.747	–	16.47
314.21 K, 100 kPa, x1 = 0.2129	–	3.21
314.21 K, 100 kPa, x1 = 0.2688	–	3.93
314.21 K, 100 kPa, x1 = 0.747	–	16.32
314.52 K, 100 kPa, x1 = 0.5784	–	10.92
314.52 K, 100 kPa, x1 = 0.747	–	16.17
314.82 K, 100 kPa, x1 = 0.6609	–	12.88
315.12 K, 100 kPa, x1 = 0.8264	–	18.1
315.42 K, 100 kPa, x1 = 0.2688	–	3.82
315.42 K, 100 kPa, x1 = 0.6609	–	12.66
315.73 K, 100 kPa, x1 = 0.4215	–	6.59
315.73 K, 100 kPa, x1 = 0.5784	–	10.55
315.73 K, 100 kPa, x1 = 0.6609	–	12.55
316.03 K, 100 kPa, x1 = 0.2688	–	3.77
316.33 K, 100 kPa, x1 = 0.4606	–	7.27
316.64 K, 100 kPa, x1 = 0.4215	–	6.44
316.64 K, 100 kPa, x1 = 0.5784	–	10.29
316.64 K, 100 kPa, x1 = 1	–	25.4
316.94 K, 100 kPa, x1 = 0.6609	–	12.12
316.94 K, 100 kPa, x1 = 0.8264	–	17
317.24 K, 100 kPa, x1 = 0.6609	–	12.01
317.55 K, 100 kPa, x1 = 0.2688	–	3.64
317.55 K, 100 kPa, x1 = 0.4215	–	6.29
317.55 K, 100 kPa, x1 = 0.5784	–	10.03
317.85 K, 100 kPa, x1 = 0.4215	–	6.24
317.85 K, 100 kPa, x1 = 0.6609	–	11.8
318.15 K, 100 kPa, x1 = 0.2688	–	3.58
318.15 K, 100 kPa, x1 = 0.4606	–	6.94
318.76 K, 100 kPa, x1 = 0.4606	–	6.83
318.76 K, 100 kPa, x1 = 0.5784	–	9.69
318.76 K, 100 kPa, x1 = 1	–	23.7
319.06 K, 100 kPa, x1 = 0.2129	–	2.87
319.67 K, 100 kPa, x1 = 0.4215	–	5.97
319.67 K, 100 kPa, x1 = 0.747	–	13.83
319.97 K, 100 kPa, x1 = 0.4606	–	6.63
319.97 K, 100 kPa, x1 = 0.5784	–	9.37
320.27 K, 100 kPa, x1 = 0.5784	–	9.29
320.27 K, 100 kPa, x1 = 0.747	–	13.58
320.27 K, 100 kPa, x1 = 0.8264	–	15.24
320.58 K, 100 kPa, x1 = 0.4215	–	5.83
321.18 K, 100 kPa, x1 = 0.4606	–	6.43
321.18 K, 100 kPa, x1 = 0.6609	–	10.73
321.48 K, 100 kPa, x1 = 0.747	–	13.09
321.79 K, 100 kPa, x1 = 0.2688	–	3.29
321.79 K, 100 kPa, x1 = 0.4606	–	6.33
322.09 K, 100 kPa, x1 = 0.2129	–	2.67
322.09 K, 100 kPa, x1 = 0.4215	–	5.62
322.09 K, 100 kPa, x1 = 1	–	21.3
322.39 K, 100 kPa, x1 = 0.747	–	12.74
322.7 K, 100 kPa, x1 = 0.747	–	12.63
323 K, 100 kPa, x1 = 0.4606	–	6.15

CCCC[n+]1ccn(C)c1.[O-][Cl+3]([O-])([O-])[O-] + CCO
viscosity [mPa·s], 101 kPa
Details	x2 = 0.592	x2 = 0.637	x2 = 0.79	x2 = 0.86
303.15 K	–	8.7	4	3.6
313.15 K	7.4	6.7	–	–
